Test results published in PMC9326216, “Treatment of Cardiovascular Dysfunction with PDE3-Inhibitors in Moderate and Severe Hypothermia—Effects on Cellular Elimination of Cyclic Adenosine Monophosphate and Cyclic Guanosine Monophosphate” (Frontiers in Physiology, 2022).
Where two headings read alike, the source gives them in different places.

Biological target: T1, ABCC4 (Homo sapiens, UniProt O15439)
T1 sequence (O15439 1-1325): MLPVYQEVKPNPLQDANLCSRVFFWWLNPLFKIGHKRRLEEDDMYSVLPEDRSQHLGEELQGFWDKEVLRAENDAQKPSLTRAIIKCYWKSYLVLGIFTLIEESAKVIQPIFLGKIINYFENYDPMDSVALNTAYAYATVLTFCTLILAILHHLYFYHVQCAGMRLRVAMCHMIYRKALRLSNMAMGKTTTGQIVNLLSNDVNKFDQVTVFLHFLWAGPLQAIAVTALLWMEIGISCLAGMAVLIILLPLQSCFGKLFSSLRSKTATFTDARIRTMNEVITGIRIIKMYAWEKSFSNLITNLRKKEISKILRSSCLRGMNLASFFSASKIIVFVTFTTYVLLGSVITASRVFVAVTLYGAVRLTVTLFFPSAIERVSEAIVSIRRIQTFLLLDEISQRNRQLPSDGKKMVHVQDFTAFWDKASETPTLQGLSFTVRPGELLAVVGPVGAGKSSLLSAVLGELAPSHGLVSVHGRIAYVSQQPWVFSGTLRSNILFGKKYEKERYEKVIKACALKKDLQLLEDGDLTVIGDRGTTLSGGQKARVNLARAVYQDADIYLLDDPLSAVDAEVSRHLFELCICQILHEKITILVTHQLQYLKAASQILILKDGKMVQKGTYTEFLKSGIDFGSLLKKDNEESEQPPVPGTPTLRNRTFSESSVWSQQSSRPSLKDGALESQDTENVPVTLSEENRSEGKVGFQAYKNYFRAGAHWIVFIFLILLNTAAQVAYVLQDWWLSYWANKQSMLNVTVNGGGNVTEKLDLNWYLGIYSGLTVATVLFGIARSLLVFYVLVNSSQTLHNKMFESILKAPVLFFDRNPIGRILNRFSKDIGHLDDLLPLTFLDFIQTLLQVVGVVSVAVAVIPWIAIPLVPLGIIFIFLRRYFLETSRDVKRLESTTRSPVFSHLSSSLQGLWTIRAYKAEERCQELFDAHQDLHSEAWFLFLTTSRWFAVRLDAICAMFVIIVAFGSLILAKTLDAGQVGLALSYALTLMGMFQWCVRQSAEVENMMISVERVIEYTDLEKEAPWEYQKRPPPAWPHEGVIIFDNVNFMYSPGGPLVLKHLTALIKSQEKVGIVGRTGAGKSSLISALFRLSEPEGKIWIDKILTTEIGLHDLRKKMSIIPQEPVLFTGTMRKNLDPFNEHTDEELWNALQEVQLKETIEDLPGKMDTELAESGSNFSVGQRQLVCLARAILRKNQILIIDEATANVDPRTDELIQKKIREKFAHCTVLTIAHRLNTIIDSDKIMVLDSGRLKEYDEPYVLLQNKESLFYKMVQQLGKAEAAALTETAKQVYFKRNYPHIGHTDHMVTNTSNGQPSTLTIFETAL
Experiment: biochemical
Format: biochemical
Method: Freshly collected EDTA blood from healthy donors (n = 35) was prepared at 0°C–4°C, starting by separating the erythrocytes from plasma by centrifugation at 2,300 g for approximately 15 min. […] Lysis followed thereafter, with ten volumes of 5 mM Tris-HCl, 0.5 mM EGTA, 4 mM KCl (pH 8.1) and washed by repeated centrifugation at 20,000 g for 20 min and resuspension in the same buffer. Vesiculation was initiated by adding 39 volumes of a […] buffer ([…] Tris-HCl, pH 8.2) to one volume of cell suspension and completed by forcing the solution five times through a 27-gauge syringe needle to promote homogenization of the membranes. […] The resulting IOVs, which still contained ABC-transporters in the membrane, enabled us to control the intracellular environment, in this case the surrounding medium, and collect the cyclic nucleotides within. […] Radioactive labeled (^3H)-cAMP or (^3H)-cGMP (Perkin Elmer, Boston, MA, United States) were added to the incubation solutions in the concentration 20 and 2 μM, respectively, depending on the transporter examined, together with the appointed study drug in concentrations up to 1 mM. […] Next step was to collect the IOVs, which was done by filtration through a nitrocellulose membrane (Bio-Rad Laboratories, Feldkirchen, Germany), and then drying it. The resulting collection of radioactivity upon the filter, was later quantified by using a Packard TopCount NXT (Packard, Downers Grove, IL, United states) after adding scintillation fluid (MicroScint-O, PerkinElmer, Groningen, Netherlands).
IC50 and Ki values were calculated for each of the drugs, both for their ability to inhibit cAMP- and cGMP- efflux, as well as PDE3 and PDE5 activity. […] Inhibition curves were created accordingly, both with and without adjustment for normothermic control.

## C[C@@H]1CC(=O)NN=C1c1ccc(NN=C(C#N)C#N)cc1 [Levosimendan]
28°C
  Drug selectivity (IC50)/(IC50): (cAMP-efflux)/(PDE3) inhibition: 270.65
28°C, Table 3, read-out: ABCC5 IC50 (Table 3)
  IC50: 27.2 ± 21.3 µM
28°C, Table 3, read-out: ABCC5 Ki (Table 3)
  Ki: 16.5 ± 12.9 µM
28°C, listed as L
  Drug selectivity (IC50)/(IC50): (cAMP-efflux)/(PDE3) inhibition: 270.7
32°C
  Drug selectivity (IC50)/(IC50): (cAMP-efflux)/(PDE3) inhibition: 85.98
32°C, Table 3, read-out: ABCC5 IC50 (Table 3)
  IC50: 16.5 ± 5.56 µM
32°C, Table 3, read-out: ABCC5 Ki (Table 3)
  Ki: 10 ± 3.37 µM
34°C
  Drug selectivity (IC50)/(IC50): (cAMP-efflux)/(PDE3) inhibition: 43.45
34°C, Table 3, read-out: ABCC5 IC50 (Table 3)
  IC50: 12.7 ± 6.6 µM
34°C, Table 3, read-out: ABCC5 Ki (Table 3)
  Ki: 7.73 ± 4 µM
37°C
  Drug selectivity (IC50)/(IC50): (cAMP-efflux)/(PDE3) inhibition: 28.76
37°C, Table 3, read-out: ABCC5 IC50 (Table 3)
  IC50: 9.41 ± 5.91 µM
37°C, Table 3, read-out: ABCC5 Ki (Table 3)
  Ki: 5.71 ± 3.58 µM

## Nc1cc(-c2ccncc2)c[nH]c1=O [Amrinone]
28°C, cAMP-efflux, inside-out vesicles, 20 µM 3H-cAMP, 60 min, read-out: ABCC4 IC50
  IC50: 8.42 ± 4.81 µM
28°C, cAMP-efflux, inside-out vesicles, read-out: ABCC4 Ki
  Ki: 5.11 ± 2.91 µM
32°C, cAMP-efflux, inside-out vesicles, 20 µM 3H-cAMP, 60 min, read-out: ABCC4 IC50
  IC50: 5.49 ± 2.25 µM
32°C, cAMP-efflux, inside-out vesicles, read-out: ABCC4 Ki
  Ki: 3.33 µM
34°C, cAMP-efflux, inside-out vesicles, 20 µM 3H-cAMP, 60 min, read-out: ABCC4 IC50
  IC50: 1.21 ± 0.1 µM
34°C, cAMP-efflux, inside-out vesicles, read-out: ABCC4 Ki
  Ki: 0.73 ± 0.058 µM
37°C, cAMP-efflux, inside-out vesicles, 20 µM 3H-cAMP, 60 min, read-out: ABCC4 IC50
  IC50: 4.65 ± 3.21 µM
37°C, cAMP-efflux, inside-out vesicles, read-out: ABCC4 Ki
  Ki: 2.82 µM
